Data on 32 compounds can be found in patent US9006454B2, “Dihydroorotate dehydrogenase inhibitors” (Merck Serono S.A., priority 2009, dated 2015).

The test system of test [1] is Jurkat cells. Kind of test: Measurement of cell proliferation (Jurkat cell), XTT assay. It counts as cell-based. Particulars: Homo sapiens, Jurkat; for inhibition at 1 µM: compound at 1 uM, read-out: % inh Jurkat_cells @ 1 uM (%); for EC50: 72 h, XTT cell viability. As for the experimental part: See also Roehm, N et al [1991] An improved colorimetric assay for cell proliferation and viability utilizing the tetrazolium salt XTT. J. Immunol. Methods 142:257-265.
Culture Jurkat cells in T-25 flasks at a density of 0.2×10^6/ml 2-3 days before the day of experiment set up.
Centrifuge Jurkat T-cell suspension at 1200 rpm for 10 minutes and resuspend cells again in fresh RPMI medium with 10% FBS.
Count the cells and dilute suspension to a density of 2×10^6 cells/ml. Seed 50 μL of this suspension in each well of a 96 well plate (100,000 cells per well). Keep the edges of the plate empty to avoid evaporation.
Serially dilute DMSO stocks of compounds to get different concentrations for an EC50 curve. 50 μL of compound diluted in media (2× concentration required in well) is added to each well. DMSO concentration should be kept constant at 0.25-0.5% for all wells.
Typically, for all compounds with IC50<1 μM, compound concentration can start at 10 μM followed by half log dilutions for a total of 8-10 concentrations. Each concentration has to be tested in triplicate.
Include controls such as cells without compound (with same DMSO concentration as compound wells), and media control
Incubate the 96 well plate in a CO2 incubator at 37° C. for 72 hrs before determining cell viability using XTT assay
XTT assay: to each well, add 50 μL of 1 mg/ml XTT solution with 20 μl of PMS/mL. Read the plates after 2 hours at 465 nm using the spectrophotometer. XTT reading for media without cells is used as background reading.
Calculate % cell viability assuming that the cells without compound are 100% viable.
Plot % cell viability as a function of concentration and determine EC50 by using software such as Graph Pad Prism to fit the curve.
On the technique in general: Formazan colour is commonly taken as a measure of viable cells.

For test [2], the target named is DHODH (Homo sapiens (Human), UniProt Q02127). The test is described as follows: DHODH activity assay (coupled enzyme assay, DCIP reduction, absorbance at 610 nm). The test is classed as biochemical. The conditions noted are these: for inhibition at 10 µM: compound at 10 uM, read-out: inh @ 10 uM hDHODH (%). As for the experimental part:
The DHODH activity assay is a coupled enzyme assay in which oxidation of DHO and subsequent reduction of ubiquinone are stoichiometrically equivalent to the reduction of DCIP ([…]). The reduction of DCIP is accompanied by a loss of absorbance at 610 nm.
Buffer Preparation: 50 mM tris HCl, 150 mM KCl, and pH 8.0, 0.8% triton.
5 μL of Dimethyl sulfoxide or a compound of formula I in DMSO solution was added to the wells of a 96 well plate. Compounds of formula I were measured at 10 μM.
Protein along with buffer was added, so that the total volume including the DMSO was 87 μL. Compound and protein were incubated for half an hour at room temperature after mixing. 5 μL of 20 mM solution of L-Dihydroorotic acid, 5 μL of 2 mM solution of Decylubiquinone and 3 μL of 2 mM solution of 2,6-Dichloroindophenol sodium salt hydrate were added to the above solution (total assay volume 100 μL). The mixture was stirred for 2 min and absorbance was recorded at every 10 min at 610 nanometers.
Percent Inhibition is Calculated as Follows
Positive control contains DMSO, buffer, enzyme and substrates
No Enzyme reaction contains DMSO, buffer and substrates
IC50 determination: • A 2 mM DMSO stock of the compound of formula I to be examined was prepared. ⅓rd dilutions were made as follows:
5 μL of each stock of compound of formula I (solution indicated in column 4 of table) was used for each 100 μL assay. Therefore, 5 μL of the 2 mM stock provided 100 μL of 100 μM solution of compound of formula I, when made up with buffer, protein and substrate. See also: Ulrich et al. (2001) Eur. J. Biochem. 268, 1861-1868.

DHODH, sequence (Q02127 whole entry): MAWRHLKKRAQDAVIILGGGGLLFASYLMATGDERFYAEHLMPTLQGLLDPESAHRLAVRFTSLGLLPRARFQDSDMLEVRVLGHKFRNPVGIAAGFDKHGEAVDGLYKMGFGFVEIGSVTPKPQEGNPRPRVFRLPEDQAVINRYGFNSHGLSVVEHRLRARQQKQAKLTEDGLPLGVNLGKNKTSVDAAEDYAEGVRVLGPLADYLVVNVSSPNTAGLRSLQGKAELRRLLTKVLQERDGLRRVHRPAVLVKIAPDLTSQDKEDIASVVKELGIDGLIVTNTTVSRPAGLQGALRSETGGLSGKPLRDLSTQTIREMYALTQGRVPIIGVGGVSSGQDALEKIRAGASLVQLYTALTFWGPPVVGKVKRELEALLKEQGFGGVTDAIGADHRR

Regarding `Cc1cc(C(=O)O)c2nc(-c3ccc(-c4ccccc4)cc3)n(CCO)c2c1` [I93], the inhibition at 1 µM in test [1] came to 29%. In addition, in test [2], the IC50 is 4790 nM and the inhibition at 10 µM is 78.8%.

Regarding `Cc1cc(C(=O)O)c2[nH]c(-c3ccc(-c4ccccc4OCc4ccccc4)cc3)nc2c1` [I106], in test [1], the inhibition at 1 µM was determined as 48%. Besides, in test [2], the IC50 came to 1500 nM and the inhibition at 10 µM was determined as 91%.

`Cc1cc(C(=O)O)c2nc(-c3ccc(-c4ccc(NC(=O)[C@@H]5CCCN5)cc4)cc3)[nH]c2c1` [I89]: the inhibition at 1 µM in test [1] was 52%. For the same compound, the inhibition at 10 µM in test [2] turned out to be 94.1%.

Regarding `O=C(O)c1cccc2[nH]c(-c3ccc(-c4ccccc4)cc3)nc12` [I1], the midpoint of the response in test [1], the EC50, lay at 645 nM. Besides, in test [2], the IC50 worked out at 795 nM and the inhibition at 10 µM worked out at 93.9%.

Take `Cc1cc(C(=O)O)c2[nH]c(-c3ccc(-c4c(F)cccc4F)cc3)nc2c1` [I76, 2-(2′,6′-Difluoro-biphenyl-4-yl)-6-methyl-3H-benzoimidazole-4-carboxylic acid]: the inhibition at 1 µM in test [1] was determined as 83.5%. Further, in test [2], the IC50 is 344 nM and the inhibition at 10 µM is 100%.

Regarding `Cc1cc(C(N)=O)c2nc(-c3c(F)c(F)c(-c4ccccc4)c(F)c3F)[nH]c2c1` [I102], in test [1], the inhibition at 1 µM was 64.2%. Also, in test [2], the IC50 amounted to 446 nM and the inhibition at 10 µM was 87.9%.

For `Cc1cc(C(=O)O)c2[nH]c(-c3ccc(-c4cccc(OC5CCNCC5)c4)cc3)nc2c1` [I155], the inhibition at 1 µM in test [1] was determined as 14.2%. In test [2], the inhibition at 10 µM worked out at 48.5%.

Turning to `Cc1cc(C(=O)O)c2nc(-c3ccc(-c4ccc(OCc5ccccn5)cc4)cc3)[nH]c2c1` [I119], the inhibition at 1 µM in test [1] was 40.3%. In test [2], the IC50 came out at 2230 nM and the inhibition at 10 µM worked out at 88.1%.

Turning to `Cc1cc(C(=O)O)c2nc(-c3ccc(-c4ccc(OCc5ccncc5)cc4)cc3)[nH]c2c1` [I114], the inhibition at 1 µM in test [1] stood at 49%. For the same compound, in test [2], the IC50 came out at 1730 nM and the inhibition at 10 µM was 65%.

Consider `N#Cc1ccccc1Oc1ccc(-c2ccc(-c3nc4c(C(=O)O)cccc4[nH]3)cc2)cc1` [I175], for which the inhibition at 1 µM in test [1] turned out to be 15%. In addition, the inhibition at 10 µM in test [2] is 30%.

As for `Cc1cc(C(=O)O)c2[nH]c(-c3c(F)c(F)c(-c4cccc(F)c4)c(F)c3F)nc2c1` [I126], the inhibition at 1 µM in test [1] was found to be 94%. In test [2], half-maximal inhibition (IC50) required 8.86 nM and the inhibition at 10 µM stood at 97%.

With `O=C(O)c1cccc2nc(-c3c(F)c(F)c(-c4cccc(F)c4)c(F)c3F)[nH]c12` [I125], in test [1], the inhibition at 1 µM worked out at 92%. In addition, in test [2], the IC50 worked out at 28.2 nM and the inhibition at 10 µM stood at 97%.

As to `O=C(O)c1cccn2cc(-c3ccc(-c4ccccc4)cc3)nc12` [I138], the inhibition at 1 µM in test [1] was 44.8%. Moreover, in test [2], half-maximal inhibition (IC50) was put at 3800 nM and the inhibition at 10 µM came out at 76.1%.

Consider `O=C(O)c1cccc2[nH]c(-c3c(F)c(F)c(-c4ccsc4)c(F)c3F)nc12` [I144], for which, in test [1], the inhibition at 1 µM was determined as 68.2%. In addition, in test [2], the IC50 turned out to be 441 nM and the inhibition at 10 µM was 89.8%.

For the compound `Cc1cc(C(=O)O)c2nc(-c3ccc(-c4ccc(O)cc4)cc3)[nH]c2c1` [I117], the inhibition at 1 µM in test [1] stood at 76%. Also, in test [2], inhibition was half-maximal at 350 nM (IC50) and the inhibition at 10 µM worked out at 102%.

For `Cc1cc(C(=O)O)c2nc(-c3c(F)c(F)c(-c4ccccc4F)c(F)c3F)[nH]c2c1` [I140], in test [1], a half-maximal response (EC50) required 33 nM and the inhibition at 1 µM turned out to be 101%. Besides, in test [2], the IC50 came to 3.5 nM and the inhibition at 10 µM is 100%.

In the case of `O=C(O)c1cccc2[nH]c(-c3ccc(-c4cccc(F)c4F)cc3)nc12` [I60], the inhibition at 1 µM in test [1] worked out at 33.4%. The inhibition at 10 µM in test [2] came out at 80.4%.

As to `O=C(O)c1cccc2[nH]c(-c3ccc(-c4ccccc4OCc4ccccc4)cc3)nc12` [I169], in test [1], the inhibition at 1 µM came out at 22%. Further, the inhibition at 10 µM in test [2] came to 72%.

Take `O=C(O)c1cccc2nc(-c3ccc(-c4ccc(OCCO)cc4)cc3)[nH]c12` [I157]: the inhibition at 1 µM in test [1] turned out to be 15.5%. In addition, the inhibition at 10 µM in test [2] is 51.8%.

As to `Cc1cc(C(=O)O)c2nc(-c3c(F)c(F)c(-c4ccc(CN5CCCCC5)cc4)c(F)c3F)[nH]c2c1` [I83, 6-Methyl-2-(2,3,5,6-tetrafluoro-4′-piperidin-1-ylmethyl-biphenyl-4-yl)-1H-benzoimidazole-4-carboxylic acid], the inhibition at 1 µM in test [1] turned out to be 93%. In test [2], it took 78 nM to reach half-maximal inhibition (IC50) and the inhibition at 10 µM came out at 111%.

Consider `Cc1cc(C(=O)O)c2nc(-c3c(F)c(F)c(-c4ccccc4)c(F)c3F)[nH]c2c1` [I41], for which, in test [1], the EC50 stood at 18 nM and the inhibition at 1 µM amounted to 103%. Also, in test [2], the IC50 turned out to be 6.8 nM and the inhibition at 10 µM amounted to 103%.

Consider `Cc1cc(C(=O)O)c2[nH]c(-c3ccc(-c4ccc(F)cc4F)cc3F)nc2c1` [I31], for which, in test [1], the inhibition at 1 µM worked out at 55.5%. Moreover, in test [2], half-maximal inhibition (IC50) required 1010 nM and the inhibition at 10 µM is 92.7%.

Turning to `Cc1cc(C(=O)O)c2nc(-c3c(F)c(F)c(-c4cccnc4)c(F)c3F)[nH]c2c1` [I141], in test [1], the EC50 worked out at 2600 nM and the inhibition at 1 µM was 86.9%. In test [2], the IC50 amounted to 32 nM and the inhibition at 10 µM is 92.5%.

As to `O=C(O)c1cccc2[nH]c(-c3ccc(Oc4ccccn4)cc3)nc12` [I70, 2-[4-(Pyridin-2-yloxy)-phenyl]-1H-benzoimidazole-4-carboxylic acid], the inhibition at 1 µM in test [1] came to 14.6%. Also, the inhibition at 10 µM in test [2] was determined as 58.6%.

For the compound `O=C(O)c1cccc2[nH]c(-c3c(F)c(F)c(-c4ccccc4F)c(F)c3F)nc12` [I131], in test [1], the inhibition at 1 µM was 78.8%. Moreover, in test [2], the IC50 was determined as 18 nM and the inhibition at 10 µM was found to be 79.3%.

`Nc1nnc(-c2cccc3[nH]c(-c4ccc(-c5ccccc5)cc4)nc23)s1` [I108]: the inhibition at 1 µM in test [1] came out at 11%. In test [2], inhibition was half-maximal at 15900 nM (IC50) and the inhibition at 10 µM came out at 53%.

On to `Cc1cc(C(=O)O)c2nc(-c3ccc(-c4ccc(OCc5cccnc5)cc4)cc3)[nH]c2c1` [I120], for which the inhibition at 1 µM in test [1] is 66.1%. For the same compound, in test [2], the IC50 was 755 nM and the inhibition at 10 µM came out at 89.9%.

As for `Cc1cc(C(=O)O)c2[nH]c(-c3c(F)c(F)c(-c4cccc(O)c4)c(F)c3F)nc2c1` [I104], in test [1], the inhibition at 1 µM amounted to 110%. Further, in test [2], half-maximal inhibition (IC50) was put at 13.5 nM and the inhibition at 10 µM was found to be 104%.

Consider `Cc1cc(C(=O)O)c2nc(-c3ccc(Oc4ccccn4)cc3)[nH]c2c1` [I71, 6-Methyl-2-[4-(pyridin-2-yloxy)-phenyl]-1H-benzoimidazole-4-carboxylic acid], for which, in test [1], the inhibition at 1 µM worked out at 28.3%. In test [2], half-maximal inhibition (IC50) required 4380 nM and the inhibition at 10 µM was 75.5%.

Take `COc1cc(-c2nc3c(C(=O)O)cccc3[nH]2)cc(OC)c1-c1ccccc1` [I20]: in test [1], a half-maximal response (EC50) required 1000 nM and the inhibition at 1 µM worked out at 67.1%. In addition, in test [2], 975 nM corresponded to half-maximal inhibition (IC50) and the inhibition at 10 µM stood at 93.2%.

With `Cc1cc(C(=O)O)c2nc(-c3ccc(-c4cccs4)cc3)[nH]c2c1` [I149], the inhibition at 1 µM in test [1] came out at 47.5%. In addition, in test [2], the IC50 worked out at 1680 nM and the inhibition at 10 µM is 88.4%.

Regarding `Cc1cc(C(=O)O)c2nc(-c3ccc(-c4cnn(Cc5ccccc5)c4)cc3)[nH]c2c1` [I111], the inhibition at 1 µM in test [1] came to 62%. Besides, in test [2], the IC50 was 155 nM and the inhibition at 10 µM worked out at 91%.

As usually defined, the IC50 is the concentration that gives 50% inhibition. In general, EC50 refers to the concentration that produces a half-maximal response. Low readings indicate greater potency, high ones weaker potency.
